The target of experiment [1] is T1, hTRβ-LBD (Homo sapiens, UniProt P10828).
T1 construct: The receptor ERα-LBD or TRβ-LBD, expressed using reported protocols; made in house
T1 sequence (P10828 217-461 limits assumed): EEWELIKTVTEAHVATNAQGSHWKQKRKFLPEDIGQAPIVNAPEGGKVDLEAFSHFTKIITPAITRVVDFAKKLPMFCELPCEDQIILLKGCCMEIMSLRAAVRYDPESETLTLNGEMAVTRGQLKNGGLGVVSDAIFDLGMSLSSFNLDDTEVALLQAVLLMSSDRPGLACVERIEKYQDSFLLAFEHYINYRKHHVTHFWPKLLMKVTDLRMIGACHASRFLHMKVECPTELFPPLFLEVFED
Briefly: Fluorescence polarization assay of coregulator peptide binding to TRβ-LBD. Particulars: for Kd: TRβ-LBD with ligand T3, 10 nM fluorescent peptide, mean of 2 independent assays in quadruplicate, AL = assay limits, read-out: Observed Kd (dissociation constants for p160 peptides for TRβ). As for the experimental part:
(§1) The peptide library synthesized in Example 1 was assayed with ERα or TRβ receptor. Library members were kept at a constant concentration of 10 nM. A ligand was optionally added to the nuclear hormone receptor.
(§2) The receptor ERα-LBD or TRβ-LBD, expressed using reported protocols (for TR see, e.g., Darimont et al., Genes Dev., 12(21):3343-56, (1998); and for ER, see, e.g., Shiau et al., Cell, (1998), 95(7):927-937), was used. The concentration of protein varied between 0.001-20 μM in the following way. In 96 well plates, hTRβ-LBD or hERα-LBD was serially diluted from 40 μM to 0.002 μM in binding buffer (50 mM Sodium Phosphate, 150 mM NaCl, pH 7.2, 1 mM DTT, 1 mM EDTA, 0.01% NP40, 10% glycerol), containing 200 μM ligand (T3, for TRβ, or estradiol, diethylstilbestrol, genistein or tamoxifen for ERα).
(§3) Subsequently 10 μL of diluted protein was added to 10 μL of fluorescent coregulator peptide (20 nM) in 384-well plates yielding final protein concentrations of […] and 10 nM fluorescent peptide concentration. The samples were allowed to equilibriate for 30 minutes. Binding was then measured using fluorescence polarization (excitation λ at 485 nm, emission λ at 530 nm) on an Analyst AD (available from Molecular Devices).
One of the major potential perturbing phenomena in this assay is unexpected quenching or enhancement of fluorescence intensity. To control for this, both overall fluorescence intensity and fluorescence anisotropy for each sample were simultaneously monitored.
(§4) All experiments were carried out in quadruplicate, with each iteration containing the positive and negative controls, and 10-12 dose points. The data were then fit using Klotz plots to determine IC50 values using nonlinear regression analysis that fits the data to a modification of the model of Heyduk and Lee. (Heyduk et al., Proc. Natl. Acad. Sci., (1990), 1774; Heyduk et al., Nature, (1993), 364, 6437; Heyduk et al., Methods Enzymol., 274, 492. Further analysis was conducted using Hill and Scatchard plots to confirm number and homogeneity of binding sites as discussed hereinbelow.
FIGS. 1 to 3 illustrate the results of three different measurements of the binding affinity of selected members of the SRC peptide library to TRβ-LBD. FIG. 4 illustrates a Scatchard plot, which provides the Kd for the SRC2-2 peptide. FIG. 5 illustrates a Hill plot, which provides the Kd for the SRC2-2 peptide. Both the Scatchard and Hill plot correlate with the direct binding plots illustrated in FIGS. 1-3. The Scatchard data were best fit to a linear function, which indicates a single class of binding sites. The slope of the Hill plot is 1, which also indicates a single class of binding sites. Measured dissociation constants for binding of the SRC peptide library to TRβ are illustrated in Table 3. […]
(Fluorescence polarisation rises when a labelled molecule tumbles more slowly, as on binding a larger partner.)

A further experiment concerns the target T2, hERα-LBD (Homo sapiens, UniProt P03372).
T2 construct: The receptor ERα-LBD or TRβ-LBD, expressed using reported protocols; made in house
T2 sequence (P03372 311-547 limits assumed): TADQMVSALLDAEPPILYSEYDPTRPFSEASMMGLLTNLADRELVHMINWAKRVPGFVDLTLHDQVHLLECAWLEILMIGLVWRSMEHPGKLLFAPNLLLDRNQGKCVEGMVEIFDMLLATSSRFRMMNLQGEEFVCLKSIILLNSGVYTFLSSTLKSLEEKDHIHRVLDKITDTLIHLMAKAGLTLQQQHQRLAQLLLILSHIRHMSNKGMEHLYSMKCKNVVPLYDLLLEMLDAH
In words: Fluorescence polarization assay of coregulator peptide binding to ERα-LBD. Particulars: ERα-LBD in the presence of estradiol; read-out: Dissociation constant for ERα, Estradiol. As for the experimental part:
as §1, §2, §3, §4
FIG. 6 illustrates direct binding of SRC2-2 to ERα-LBD in the presence of the ligands estradiol, diethylstilbestrol and genistein. […] Measured dissociation constants for binding of members of the SRC peptide library to ERα, in the presence of 3 different ligands, are illustrated in Table 4 wherein the binding units are μM. Table 5 illustrates a comparison of binding constants (μM) for SRC peptides with the TRβ receptor in the presence of thyroid hormone T3, and the ERα receptor in the presence of estradiol.

Experiment [2] deals with T1, hTRβ-LBD. As to conditions: cited from earlier work.
Experiment [3] deals with T3, hERα-LBD (ligand binding domain of estrogen receptor α) (human, UniProt P03372 297-554).
T3 construct: Assayed with estradiol, diethylstilbestrol, genistein or tamoxifen present; the ligand is named under assay in each row
T3 sequence (looked up): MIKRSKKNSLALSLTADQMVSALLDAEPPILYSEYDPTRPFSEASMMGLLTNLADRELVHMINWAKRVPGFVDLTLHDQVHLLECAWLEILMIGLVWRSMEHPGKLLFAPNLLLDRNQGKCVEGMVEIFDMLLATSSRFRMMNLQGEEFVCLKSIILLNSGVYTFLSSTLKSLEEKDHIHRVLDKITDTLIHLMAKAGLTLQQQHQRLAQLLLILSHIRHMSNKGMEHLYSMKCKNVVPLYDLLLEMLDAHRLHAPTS
In words: fluorescence polarization, labelled peptide 10 nM, hERα-LBD titrated, genistein present. As to the method: (§5) The concentration of protein varied between 0.001-20 μM in the following way. In 96 well plates, hTRβ-LBD or hERα-LBD was serially diluted from 40 μM to 0.002 μM in binding buffer (50 mM Sodium Phosphate, 150 mM NaCl, pH 7.2, 1 mM DTT, 1 mM EDTA, 0.01% NP40, 10% glycerol), containing 200 μM ligand (T₃, for TRβ, or estradiol, diethylstilbestrol, genistein or tamoxifen for ERα).
as §3
(§6) All experiments were carried out in quadruplicate, with each iteration containing the positive and negative controls, and 10-12 dose points. The data were then fit using Klotz plots to determine IC₅₀ values using nonlinear regression analysis that fits the data to a modification of the model of Heyduk and Lee. (Heyduk et al., Proc. Natl. Acad. Sci., (1990), 1774; Heyduk et al., Nature, (1993), 364, 6437; Heyduk et al., Methods Enzymol., 274, 492. Further analysis was conducted using Hill and Scatchard plots to confirm number and homogeneity of binding sites as discussed hereinbelow.

For experiment [4], the target named is T4, hTRβ-LBD (ligand binding domain of thyroid hormone receptor β) (human, UniProt P10828 202-461).
T4 construct: Assayed with the small-molecule ligand T3 present
T4 sequence (looked up): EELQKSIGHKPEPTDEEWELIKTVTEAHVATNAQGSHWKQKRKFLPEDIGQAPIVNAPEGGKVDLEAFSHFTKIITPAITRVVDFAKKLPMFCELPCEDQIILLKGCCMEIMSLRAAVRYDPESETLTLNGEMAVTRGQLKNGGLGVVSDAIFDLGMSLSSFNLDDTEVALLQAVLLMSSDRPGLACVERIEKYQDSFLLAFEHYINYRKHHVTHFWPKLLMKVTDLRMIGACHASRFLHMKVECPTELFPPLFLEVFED
Briefly: fluorescence polarization, hTRβ-LBD titrated, T3 present; Table 3 prints ≧3 µM for this pair. As to the method:
as §5, §3, §6

For experiment [5], the target named is T3, hERα-LBD (ligand binding domain of …). Briefly: fluorescence polarization, labelled peptide 10 nM, hERα-LBD titrated, diethylstilbestrol present. As for the experimental part: as §5, §3, §6
The target of experiment [6] is T4, hTRβ-LBD (ligand binding domain of …). Briefly: fluorescence polarization, hTRβ-LBD titrated, T3 present; repeats Table 3. As to the method:
as §5, §3, §6

Experiment [7] has as its target T3, hERα-LBD (ligand binding domain of …). Briefly: fluorescence polarization, hERα-LBD titrated, estradiol present; repeats Table 4. As for the experimental part:
as §5, §3, §6

The target is the same in experiment [8]. Briefly: fluorescence polarization, labelled peptide 10 nM, hERα-LBD titrated, estradiol present. As to the method: as §5, §3, §6
Experiment [9] concerns the target T4, hTRβ-LBD (ligand binding domain of …). In words: fluorescence polarization, fluorescein-labelled peptide 10 nM, hTRβ-LBD titrated, T3 present. As for the experimental part:
as §5, §3, §6

[10] abbreviates: TRβ, Darimont et al., Genes & Dev. (1998) 12:3343, read-out: Published Results: Kd app.

Like-named read-outs stand apart in the source and are kept apart here. Ends that are not written are not given here. Peptide text beside a SMILES is read from it. * marks the point of attachment. Fluorescein(5-NHCOCH2) = O=C(C*)Nc1ccc2c(c1)C(=O)OC21c2ccc(O)cc2Oc2cc(O)ccc21

Take `CC[C@H](C)[C@H](NC(=O)[C@H](CCCCN)NC(=O)[C@H](Cc1c[nH]cn1)NC(=O)[C@H](CCCNC(=N)N)NC(=O)[C@H](C)NC(=O)[C@@H](NC(=O)[C@H](CC(C)C)NC(=O)[C@@H](N)CSCC(=O)Nc1ccc2c(c1)C(=O)OC21c2ccc(O)cc2Oc2cc(O)ccc21)[C@@H](C)O)C(=O)N[C@@H](CC(C)C)C(=O)N[C@@H](Cc1c[nH]cn1)C(=O)N[C@@H](CCCNC(=N)N)C(=O)N[C@@H](CC(C)C)C(=O)N[C@@H](CC(C)C)C(=O)N[C@@H](CCC(N)=O)C(=O)N[C@@H](CCC(=O)O)C(=O)NCC(=O)N[C@@H](CO)C(=O)N1CCC[C@H]1C(=O)N[C@@H](CO)C(=O)N[C@@H](CC(=O)O)C(=O)O` [SRC1-2]: the Kd is 930 nM at hTRβ-LBD [1] and 231 nM on hERα-LBD.
Consider `CC[C@H](C)[C@H](NC(=O)[C@H](CCCCN)NC(=O)[C@H](Cc1c[nH]cn1)NC(=O)[C@H](CCCCN)NC(=O)[C@H](CCC(=O)O)NC(=O)[C@H](CCCCN)NC(=O)[C@H](CC(C)C)NC(=O)[C@@H](N)CSCC(=O)Nc1ccc2c(c1)C(=O)OC21c2ccc(O)cc2Oc2cc(O)ccc21)C(=O)N[C@@H](CC(C)C)C(=O)N[C@@H](Cc1c[nH]cn1)C(=O)N[C@@H](CCCNC(=N)N)C(=O)N[C@@H](CC(C)C)C(=O)N[C@@H](CC(C)C)C(=O)N[C@@H](CCC(N)=O)C(=O)N[C@@H](CC(=O)O)C(=O)N[C@@H](CO)C(=O)N[C@@H](CO)C(=O)N[C@@H](CO)C(=O)N1CCC[C@H]1C(=O)N[C@H](C(=O)O)C(C)C` [SRC2-2], for which the Kd is 670 nM on hTRβ-LBD [1]; 222 nM at hERα-LBD; 800 nM at hTRβ-LBD [2] (setting [10]); 1000 nM on hTRβ-LBD [2] (hTRβ-LBD, reported value, read-out: Reported Kd).
Consider `CC(C)C[C@H](NC(=O)[C@H](C)NC(=O)[C@H](CC(N)=O)NC(=O)[C@H](CCC(=O)O)NC(=O)[C@H](CCCCN)NC(=O)[C@H](CCCCN)NC(=O)[C@H](CCCCN)NC(=O)[C@@H](N)CSCC(=O)Nc1ccc2c(c1)C(=O)OC21c2ccc(O)cc2Oc2cc(O)ccc21)C(=O)N[C@@H](CC(C)C)C(=O)N[C@@H](CCCNC(=N)N)C(=O)N[C@@H](Cc1ccc(O)cc1)C(=O)N[C@@H](CC(C)C)C(=O)N[C@@H](CC(C)C)C(=O)N[C@@H](CC(=O)O)C(=O)N[C@@H](CCCCN)C(=O)N[C@@H](CC(=O)O)C(=O)N[C@@H](CC(=O)O)C(=O)N[C@H](C(=O)N[C@@H](CCCCN)C(=O)N[C@@H](CC(=O)O)C(=O)O)[C@@H](C)O` [SRC2-3], for which the Kd on hTRβ-LBD [1] is at least 3000 nM; on hERα-LBD, 1420 nM; on hTRβ-LBD [2] (setting [10]), 3200 nM.
For `CC(C)C[C@H](NC(=O)[C@H](CCCCN)NC(=O)[C@H](CCCCN)NC(=O)[C@H](Cc1c[nH]cn1)NC(=O)CNC(=O)[C@H](CCCCN)NC(=O)[C@H](CO)NC(=O)[C@H](CCC(=O)O)NC(=O)[C@@H](N)CSCC(=O)Nc1ccc2c(c1)C(=O)OC21c2ccc(O)cc2Oc2cc(O)ccc21)C(=O)N[C@@H](CC(C)C)C(=O)N[C@@H](CCC(N)=O)C(=O)N[C@@H](CC(C)C)C(=O)N[C@@H](CC(C)C)C(=O)N[C@H](C(=O)N[C@@H](CS)C(=O)N[C@@H](CO)C(=O)N[C@@H](CO)C(=O)N[C@@H](CC(=O)O)C(=O)N[C@@H](CC(=O)O)C(=O)N[C@@H](CCCNC(=N)N)C(=O)O)[C@@H](C)O` [SRC3-1] (H-C(Fluorescein(5-NHCOCH2))ESKGHKKLLQLLTCSSDDR-OH; N-terminus assumed), the “Comparison of affinity for TRβ and ERα” value on hTRβ-LBD [1] (Tables 3, 4 and 5) was “approximately the same affinity”.
As to C(5‑iodoacetamidofluorescein)KKKENALLRYLLDKDDTKD [SRC2-3 coregulator peptide], the Kd in experiment [3] turned out to be 2000 nM; in experiment [4], 3000 nM; in [5], 786 nM.
On to C(5‑iodoacetamidofluorescein)ESKGHKKLLQLLTCSSDDR (The peptide has a second, internal Cys) [SRC3-1 coregulator peptide], for which the Kd in [6] was found to be 870 nM; in experiment [7], 160 nM; in experiment [8], 160 nM; in [3], 250 nM; in [9], 870 nM; in experiment [5], 1000 nM.

The record behind these values is patent US20040005636A1, “Method for obtaining the binding affinities of a peptide library to a protein” (priority 2002, published 2004).
